# System: Bacillus coagulans DSM 2311
# Assay: Analysis of encapsulated and non-capsulated bacteria viability (CFU survival) in detergent solution, cosmetic compound solution or final detergent based product
# Format: cell-based
# Protocol: For all experimental trails probiotic strain of Bacillus coagulans DSM 2311 was used which was obtained from DSMZ. Bacterial cell suspension was prepared by cultivation of B. coagulans cells in 100 mL of liquid nutrient broth medium (Oxoid) in 1000 mL Erlenmeyer flask, for 24 hours at 37° C. while shaking at 180 rmp. Prior to encapsulation the cells were collected by centrifugation at 6000 rpm using Rotofix 32 A Hettich, then washed twice and re-suspended in sterile 0.9% NaCl solution to obtain cell concentration of 10^11 per mL.
# 1 g of ˜10^10 bacteria-containing lyophilized and rehydrated or fresh microcapsules was added to the fixed volume (100 mL) of either: detergent solution, cosmetic compound containing solution or final formulation detergent based product, and incubated at 37° C. temperature. The samples were harvested at certain timepoints to evaluate bacterial survival. After sample harvest the bacterial capsules were washed twice with sterile water and added to a fixed volume of sterile 2% sodium citrate solution for liberation of encapsulated bacteria. The cell suspension was diluted from 10^1 to 10^5 fold and 100 μL of solution was plated on Petri dishes filled with Nutrient Broth solid medium. The survival rates [%] of capsulated and non-capsulated bacteria was estimated by comparing CFU averages at each sample point, from 3 replicas. See formulas:
# [formula] • N—estimated CFU; • CFU—sum of calculated colonies from each evaluated Petri plates • Vp—plated volume • Vfd—final dilution volume • D—dilution fold • Survival of bacteria [%]=N(1+n)/N1*100 • N1—bacterial CFU's from first timepoint sample • N(1+n)—bacterial CFU's from following timepoint sample
# 1 g of 10^10 bacteria-containing rehydrated or fresh microcapsules was added to the fixed volume (100 mL) of detergent solution and incubated for 120 hours at 37° C. temperature. A parallel experiment was performed with non-capsulated cells (control group). After the sample harvest the bacterial capsules were washed twice with sterile water and added to the fixed volume of sterile 2% sodium citrate solution for liberation of encapsulated bacteria. The cell suspension was diluted 10^1-10^5 fold and 100 μL plated on replicates of Nutrient Broth solid medium. The survival rates [%] of capsulated and non-capsulated bacteria were estimated as described in the section—Analysis of encapsulated bacteria viability in detergent based solution, by comparing CFU averages at each sample time point from 3 replicas.
# 1 g of 10^10 bacteria containing lyophilized-rehydrated microcapsules was added to the fixed volume (100 mL) of solutions of: Grapefruit seed extract d-limonene, or Azadirachta indica extract and incubated for 120 hours at 37° C. temperature. A parallel experiment was performed with non-capsulated cells. After sample harvest the bacterial capsules were washed twice with sterile water and added to the fixed volume of sterile 2% sodium citrate solution for liberation of encapsulated bacteria. The cell suspension was diluted 10^1-10^5 fold and 100 μL of solution was plated on replicates of Nutrient Broth solid medium. The survival rates [%] of capsulated and non-capsulated bacteria were estimated as described in the section—Analysis of encapsulated bacteria viability in detergent based solution, by comparing CFU averages at each sample point, from 3 replicas. […]
compound,measurement,setting,value
cocoamide propyl betaine [CAPB],non-capsulated bacteria (starting titers) inactivated,"cocoamide propyl betaine (CAPB) 6.7% solution, after 0.5 h, 37° C.",97%
"C=C(C)[C@H]1CC=C(C)CC1 [terpenes, d-limonene]",non-capsulated B. Coagulans bacteria inactivated,"0.7% terpene d-limonene solution, in 2 hours",100%
cocoglycozide,non-capsulated bacteria inactivated,"7% cocoglycozide solution, 37° C.",75%
"CCCCCCCCCCCCOS(=O)(=O)[O-].[Na+] [SLS, sodium lauryl sulphate]",non-capsulated bacteria inactivated,"6.7% sodium lauryl sulphate (SLS) solution, 37° C.",80%
cocamide diethanolamine,non-capsulated bacteria inactivated,"3% cocamide diethanolamine solution, 37° C.",75%

# Source: patent US20180360707A1, “COMPOSITION AND METHOD FOR INCREASE OF SURVIVAL AND STABILIZATION OF PROBIOTIC BACTERIA (PB) IN DETERGENT BASED COMPOSITIONS OF PERSONAL HYGIENE AND DOMESTIC PRODUCTS” (UAB "PROBIOSANUS", priority 2015, published 2018)
